The term Kd denotes the equilibrium constant for the complex coming apart.

The first experiment addresses T1, CIRBP (Homo sapiens, UniProt Q14011).
T1 construct: full length (1-172), wild type; His6-protein A tag removed by TEV protease; E. coli BL21-DE3 Star; 15N-labelled
T1 sequence (Q14011 1-172): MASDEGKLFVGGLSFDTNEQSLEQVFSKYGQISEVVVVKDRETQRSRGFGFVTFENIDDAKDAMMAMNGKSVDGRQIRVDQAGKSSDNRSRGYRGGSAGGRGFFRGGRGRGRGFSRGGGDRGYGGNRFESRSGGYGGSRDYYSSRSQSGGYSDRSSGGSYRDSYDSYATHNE
Description: 1H-15N HSQC NMR titration. Format: binding.
Conditions: not given
The source says:
1H-15N HSQC NMR titration on CIRBP | ATP binding to CIRBP is in the fast exchange regime with an associated KD
Regarding `Nc1ncnc2c1ncn2[C@@H]1O[C@H](COP(=O)(O)OP(=O)(O)OP(=O)(O)O)[C@@H](O)[C@H]1O` [ATP], binding was put at a Kd of 2900 ± 1400 µM.

In a further experiment the target is T1, CIRBP. Description: 1H-15N HSQC NMR chemical shift perturbation. The format is binding. The conditions noted are these: 17 μM 15N-CIRBP; 10 mM ligand; 50 mM sodium phosphate, 150 mM NaCl, pH 6.5, 298 K; RRM and RG/RGG region.
As to `Nc1ncnc2c1ncn2[C@@H]1O[C@H](COP(=O)(O)OP(=O)(O)O)[C@@H](O)[C@H]1O` [ADP], the “1H-15N HSQC NMR chemical shift perturbation” value was “ADP and NAD^+ showed binding to CIRBP (Figure 2a,c)”.
On the same count and under the same terms, the result for `Nc1ncnc2c1ncn2[C@@H]1O[C@H](COP(=O)(O)O)[C@@H](O)[C@H]1O` [AMP] reads “the other tested nucleotides (ATP, AMP)”; that for `NC(=O)c1ccc[n+]([C@@H]2O[C@H](COP(=O)(O)OP(=O)(O)OC[C@H]3O[C@@H](n4cnc5c(N)ncnc54)[C@H](O)[C@@H]3O)[C@@H](O)[C@H]2O)c1` [NAD+], “ADP and NAD^+ showed binding to CIRBP (Figure 2a,c)”.
On the same count and under the same terms, the result for `NC(=O)C1=CN([C@@H]2O[C@H](COP(=O)(O)OP(=O)(O)OC[C@H]3O[C@@H](n4cnc5c(N)ncnc54)[C@H](O)[C@@H]3O)[C@@H](O)[C@H]2O)C=CC1` [NADH] reads “dinucleotides (NADH, NADP^+ and NADPH) showed significant binding to CIRBP”; that for `NC(=O)C1=CN([C@@H]2O[C@H](COP(=O)(O)OP(=O)(O)OC[C@H]3O[C@@H](n4cnc5c(N)ncnc54)[C@H](OP(=O)(O)O)[C@@H]3O)[C@@H](O)[C@H]2O)C=CC1` [NADPH], “dinucleotides (NADH, NADP^+ and NADPH) showed significant binding to CIRBP”.

(Values after PMC8197425, “ATP regulates RNA‐driven cold inducible RNA binding protein phase separation” (Protein Science : A Publication of the Protein Society, 2021).)
